pIC50: −log10 of the molar value. Active and inactive are the calls of the source. The rule behind the calls is not given here.
Tests used:
[1] = biological target: T1, DNA topoisomerase 2-alpha (Homo sapiens, UniProt P11388); test: Poison activity at human Topo2alpha expressed in baculovirus-infected insect cells using pBR322 as substrate assessed as topo2/DNA cleavage complex generation after 6 minutes by ethidium bromide staining based agarose gel electrophoresis
[2] = biological target: T1, DNA topoisomerase 2-alpha; test: Inhibition of human topoisomerase 2alpha expressed in baculovirus-infected insect cells assessed as reduction in pBR322 supercoiled DNA relaxation after 60 mins by ethidium bromide staining based agarose gel electrophoresis
Bos taurus [3] = organism: Bos taurus; test: Binding affinity to calf thymus DNA at 50 uM by UV-spectrophotometric analysis
HeLa [4] = test: Antiproliferative activity against human HeLa cells after 72 hrs by MTT assay; format: functional, cell-based
MCF7 = test: Antiproliferative activity against human MCF7 cells after 72 hrs by MTT assay; format: functional, cell-based; conditions: MCF7, 72 h
A549 = test: Antiproliferative activity against human A549 cells after 72 hrs by MTT assay; format: functional, cell-based; conditions: A549, 72 h
DU-145 = test: Antiproliferative activity against human DU145 cells after 72 hrs by MTT assay; format: functional, cell-based; conditions: DU-145, 72 h
[5] = biological target: T1, DNA topoisomerase 2-alpha; test: Poison activity at human Topo2alpha expressed in baculovirus-infected insect cells using pBR322 as substrate assessed as concentration required to observe the same amount of topo2/DNA cleavage complex generated by etoposide at 20 uM after 6 minutes by ethidium bromide staining based agarose gel electrophoresis
Bos taurus [6] = organism: Bos taurus; test: Binding affinity to calf thymus DNA in absence of topo2 enzyme by circular dichroism titration analysis
HeLa [7] = test: Inhibition of human of DNA topoisomerase 2 in human HeLa cells assessed as induction of H2AX phosphorylation at 10 uM after 90 mins by NuPAGE based electrophoresis; format: cell-based

T1 sequence (P11388 whole entry): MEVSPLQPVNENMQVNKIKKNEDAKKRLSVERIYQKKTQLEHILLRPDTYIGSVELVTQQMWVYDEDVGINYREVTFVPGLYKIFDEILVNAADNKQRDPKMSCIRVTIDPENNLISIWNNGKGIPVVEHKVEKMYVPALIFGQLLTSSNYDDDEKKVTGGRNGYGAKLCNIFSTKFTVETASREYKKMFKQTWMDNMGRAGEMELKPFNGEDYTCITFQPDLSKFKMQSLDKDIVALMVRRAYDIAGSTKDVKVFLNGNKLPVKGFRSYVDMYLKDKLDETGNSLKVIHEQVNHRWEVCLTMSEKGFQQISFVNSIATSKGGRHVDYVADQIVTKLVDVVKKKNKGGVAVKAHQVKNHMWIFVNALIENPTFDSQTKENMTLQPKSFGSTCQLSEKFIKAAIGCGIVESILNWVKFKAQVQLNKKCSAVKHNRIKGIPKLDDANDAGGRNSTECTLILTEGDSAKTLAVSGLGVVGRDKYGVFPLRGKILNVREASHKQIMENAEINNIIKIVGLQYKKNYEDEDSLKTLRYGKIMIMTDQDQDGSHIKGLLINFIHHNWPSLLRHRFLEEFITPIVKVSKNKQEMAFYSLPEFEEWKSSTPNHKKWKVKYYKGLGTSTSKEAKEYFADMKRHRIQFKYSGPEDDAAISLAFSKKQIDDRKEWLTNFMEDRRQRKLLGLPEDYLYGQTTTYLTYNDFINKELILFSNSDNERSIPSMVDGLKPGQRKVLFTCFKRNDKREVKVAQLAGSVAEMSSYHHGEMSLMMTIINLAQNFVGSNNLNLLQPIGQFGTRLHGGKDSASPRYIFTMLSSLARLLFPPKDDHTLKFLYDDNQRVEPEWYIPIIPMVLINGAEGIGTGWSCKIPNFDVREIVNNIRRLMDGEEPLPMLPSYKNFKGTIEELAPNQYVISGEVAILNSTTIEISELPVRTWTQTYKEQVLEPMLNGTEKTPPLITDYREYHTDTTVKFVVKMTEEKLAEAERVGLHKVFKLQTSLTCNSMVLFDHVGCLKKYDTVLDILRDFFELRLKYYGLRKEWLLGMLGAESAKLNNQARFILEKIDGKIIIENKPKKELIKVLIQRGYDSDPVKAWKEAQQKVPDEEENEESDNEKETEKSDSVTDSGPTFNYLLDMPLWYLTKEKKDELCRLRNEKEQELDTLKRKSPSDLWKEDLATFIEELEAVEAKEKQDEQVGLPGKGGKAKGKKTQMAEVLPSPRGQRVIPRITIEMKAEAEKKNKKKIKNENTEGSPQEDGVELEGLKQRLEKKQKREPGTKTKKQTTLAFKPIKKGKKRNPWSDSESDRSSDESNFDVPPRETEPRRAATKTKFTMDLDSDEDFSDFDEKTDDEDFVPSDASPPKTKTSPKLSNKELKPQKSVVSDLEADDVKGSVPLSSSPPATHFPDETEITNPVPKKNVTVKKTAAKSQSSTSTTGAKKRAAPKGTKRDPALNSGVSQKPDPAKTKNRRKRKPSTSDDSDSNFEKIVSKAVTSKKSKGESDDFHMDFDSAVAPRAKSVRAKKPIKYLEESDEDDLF

| SMILES | Activity [1] | pIC50 [2] | Activity (Bos taurus [3]) | pIC50 (HeLa [4]) | pIC50 (MCF7) | pIC50 (A549) | pIC50 (DU-145) | Activity [5] [µM] | Activity (Bos taurus [6]) | inhibition (HeLa [7]) |
| --- | --- | --- | --- | --- | --- | --- | --- | --- | --- | --- |
| O=C1NC(=S)NC(=O)C1C(=O)Nc1ccccc1 [MERBARONE] | inactive | 3.92 | inactive | 4.21 | 4.08 | 4.40 | 4.72 | – | – | – |
| COc1cccc(NC(=O)c2c(O)n(-c3ccccc3)c(=S)n(-c3ccccc3)c2=O)c1 | – | 4.52 | inactive | 5.07 | 4.85 | 5.16 | 4.90 | 100 | inactive | – |
| O=C(Nc1ccccc1)c1c(O)n(-c2ccccc2)c(=S)n(-c2ccccc2)c1=O | – | 5.30 | inactive | 4.97 | 4.87 | 5.04 | 4.77 | 200 | inactive | Active |
| O=C(Nc1cccc(O)c1)c1c(O)n(-c2ccccc2)c(=S)n(-c2ccccc2)c1=O | inactive | 3.70 | inactive | 4.41 | 4.03 | 4.23 | 4.30 | – | inactive | – |
| O=C(Nc1ccc(O)cc1)c1c(O)n(-c2ccccc2)c(=S)n(-c2ccccc2)c1=O | – | 3.82 | inactive | 4.37 | 4.18 | 4.43 | 4.37 | 200 | inactive | – |
| COc1cc([C@@H]2c3cc4c(cc3[C@@H](O[C@@H]3O[C@@H]5CO[C@@H](C)O[C@H]5[C@H](O)[C@H]3O)[C@H]3COC(=O)[C@H]23)OCO4)cc(OC)c1O [ETOPOSIDE] | – | – | inactive | 5.62 | 4.98 | 5.89 | 6.00 | – | – | – |
| COc1cc(NC(=O)c2c(O)n(-c3ccccc3)c(=S)n(-c3ccccc3)c2=O)cc(OC)c1O | – | 3.92 | inactive | 4.74 | 4.27 | 4.76 | 4.57 | 200 | inactive | – |

— ChEMBL document CHEMBL4024755, “Pharmacophore Hybridization To Discover Novel Topoisomerase II Poisons with Promising Antiproliferative Activity” (J Med Chem, 2018)
